Key:
Assay in all cases: LC-MS malonyltransferase assay, non-linear Michaelis-Menten fit
Assay type in all cases: biochemical, Fragaria × ananassa
Conditions in all cases: potassium phosphate pH 7.0, 30°C, 30 min
MAT1C (FaMAT1C) = test system: T1, MAT1C (FaMAT1C)
T1 construct: gene MAT1; no tag removal described
From the text: LC-MS malonyltransferase assay, non-linear Michaelis-Menten fit on MAT1C (FaMAT1C)

MAT4C1/S1 (FaMAT4C1) = test system: T2, MAT4C1/S1 (FaMAT4C1)
T2 construct: gene MAT4; no tag removal described
From the text: LC-MS malonyltransferase assay, non-linear Michaelis-Menten fit on MAT4C1/S1 (FaMAT4C1)

MAT1S (FaMAT1S) = test system: T3, MAT1S (FaMAT1S)
T3 construct: gene MAT1; no tag removal described
From the text: LC-MS malonyltransferase assay, non-linear Michaelis-Menten fit on MAT1S (FaMAT1S)

MAT2C1/S1 (MAT2S1) = test system: T4, MAT2C1/S1 (MAT2S1)
T4 construct: gene MAT2; no tag removal described
From the text: LC-MS malonyltransferase assay, non-linear Michaelis-Menten fit on MAT2C1/S1 (MAT2S1)

MAT2C2/S2 (MAT2S2) = test system: T5, MAT2C2/S2 (MAT2S2)
T5 construct: gene MAT2; no tag removal described
From the text: LC-MS malonyltransferase assay, non-linear Michaelis-Menten fit on MAT2C2/S2 (MAT2S2)

[1] = acceptor, co-substrate malonyl-CoA
[2] = donor, co-substrate quercetin-3-glucoside

| Compound | Km (MAT1C (FaMAT1C); [1]) [µM] | Km (MAT4C1/S1 (FaMAT4C1); [1]) [µM] | Km (MAT1S (FaMAT1S); [1]) [µM] | Km (MAT2C1/S1 (MAT2S1); [1]) [µM] | Km (MAT2C2/S2 (MAT2S2); [2]) [µM] | Km (MAT1C (FaMAT1C); [2]) [µM] | Km (MAT2C1/S1 (MAT2S1); [2]) [µM] | Km (MAT4C1/S1 (FaMAT4C1); [2]) [µM] | Km (MAT1S (FaMAT1S); [2]) [µM] | Km (MAT2C2/S2 (MAT2S2); [1]) [µM] |
| --- | --- | --- | --- | --- | --- | --- | --- | --- | --- | --- |
| OC[C@H]1O[C@@H](Oc2cc3c(O)cc(O)cc3[o+]c2-c2ccc(O)c(O)c2)[C@H](O)[C@@H](O)[C@@H]1O [Cyanidin‐3‐glucoside] | 17 ± 3 | 63 ± 30 | 11 ± 3 |  |  |  |  |  |  |  |
| O=c1c(O[C@@H]2O[C@H](CO)[C@@H](O)[C@H](O)[C@H]2O)c(-c2ccc(O)cc2)oc2cc(O)cc(O)c12 [Kaempferol‐3‐glucoside] | 150 ± 40 | 250 ± 80 | 300 ± 60 | 790 ± 300 |  |  |  |  |  |  |
| OC[C@H]1O[C@@H](Oc2cc3c(O)cc(O)cc3[o+]c2-c2ccc(O)cc2)[C@H](O)[C@@H](O)[C@@H]1O [Pelargonidin‐3‐glucoside] | 270 ± 100 | 390 ± 200 | 400 ± 200 |  |  |  |  |  |  |  |

Now from value to compound:

| Km (MAT1C (FaMAT1C); [1]) [µM] | Km (MAT4C1/S1 (FaMAT4C1); [1]) [µM] | Km (MAT1S (FaMAT1S); [1]) [µM] | Km (MAT2C1/S1 (MAT2S1); [1]) [µM] | Km (MAT2C2/S2 (MAT2S2); [2]) [µM] | Km (MAT1C (FaMAT1C); [2]) [µM] | Km (MAT2C1/S1 (MAT2S1); [2]) [µM] | Km (MAT4C1/S1 (FaMAT4C1); [2]) [µM] | Km (MAT1S (FaMAT1S); [2]) [µM] | Km (MAT2C2/S2 (MAT2S2); [1]) [µM] | Compound |
| --- | --- | --- | --- | --- | --- | --- | --- | --- | --- | --- |
|  |  |  |  | 24 ± 20 | 700 ± 200 | 22 ± 10 | 410 ± 200 | 450 ± 200 |  | CC(C)(COP(=O)(O)OP(=O)(O)OC[C@H]1O[C@@H](n2cnc3c(N)ncnc32)[C@H](O)[C@@H]1OP(=O)(O)O)[C@@H](O)C(=O)NCCC(=O)NCCSC(=O)CC(=O)O [Malonyl‐CoA] |
| 310 ± 100 | 220 ± 100 | 300 ± 100 | 180 ± 50 |  |  |  |  |  | 180 ± 60 | O=c1c(O[C@@H]2O[C@H](CO)[C@@H](O)[C@H](O)[C@H]2O)c(-c2ccc(O)c(O)c2)oc2cc(O)cc(O)c12 [Quercetin‐3‐glucoside] |
